For orientation: pIC50 means the IC50 on a negative log10 scale, so that one unit is a factor of ten. Read a high pIC50 as a small IC50.

For assay [1], the target named is T1, Plasminogen (Rattus norvegicus, UniProt Q01177). Kind of assay: In vitro inhibitory activity was evaluated against thrombolytic enzyme plasmin; Inactive.
The target of another assay is Coagulation factor X (Homo sapiens, UniProt P00742). Kind of assay: In vitro inhibitory activity was evaluated against Coagulation factor X.
Assay [2] can be described thus: In vitro inhibitory activity was evaluated against FIIa serine protease.
The target in a further assay is Serine protease 1 (Homo sapiens, UniProt P07477). Kind of assay: In vitro inhibitory activity was evaluated against human trypsin.
Assay [3] concerns the target T1, Plasminogen. Kind of assay: In vitro inhibitory activity was evaluated against thrombolytic enzyme plasmin.

SMILES strings stand for the structures. pIC50: −log10 of the molar value. A value given as a limit tells only on which side of the number the result lay.

Chain of Serine protease 1 (P07477 whole entry): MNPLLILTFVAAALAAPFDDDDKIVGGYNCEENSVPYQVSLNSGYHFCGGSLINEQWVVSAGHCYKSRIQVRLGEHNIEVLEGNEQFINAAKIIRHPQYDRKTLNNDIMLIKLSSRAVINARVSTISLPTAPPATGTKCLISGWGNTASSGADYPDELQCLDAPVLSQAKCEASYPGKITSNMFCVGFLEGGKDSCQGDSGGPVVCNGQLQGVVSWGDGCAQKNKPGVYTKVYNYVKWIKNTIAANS
T1 sequence (Q01177 97-581 limits assumed): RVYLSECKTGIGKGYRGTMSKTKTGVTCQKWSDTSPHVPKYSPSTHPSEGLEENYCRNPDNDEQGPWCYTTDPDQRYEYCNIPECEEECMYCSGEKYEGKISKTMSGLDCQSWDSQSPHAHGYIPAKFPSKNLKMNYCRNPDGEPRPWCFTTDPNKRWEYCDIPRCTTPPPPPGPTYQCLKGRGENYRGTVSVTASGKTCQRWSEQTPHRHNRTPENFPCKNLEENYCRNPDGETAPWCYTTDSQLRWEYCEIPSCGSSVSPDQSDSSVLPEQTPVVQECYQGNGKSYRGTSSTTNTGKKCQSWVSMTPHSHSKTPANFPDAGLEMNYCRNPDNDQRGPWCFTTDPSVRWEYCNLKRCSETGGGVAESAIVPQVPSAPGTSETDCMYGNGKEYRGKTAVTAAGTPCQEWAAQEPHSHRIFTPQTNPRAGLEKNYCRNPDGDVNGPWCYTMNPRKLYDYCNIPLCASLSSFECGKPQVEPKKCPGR
T1 sequence (Q01177 582-812 limits assumed): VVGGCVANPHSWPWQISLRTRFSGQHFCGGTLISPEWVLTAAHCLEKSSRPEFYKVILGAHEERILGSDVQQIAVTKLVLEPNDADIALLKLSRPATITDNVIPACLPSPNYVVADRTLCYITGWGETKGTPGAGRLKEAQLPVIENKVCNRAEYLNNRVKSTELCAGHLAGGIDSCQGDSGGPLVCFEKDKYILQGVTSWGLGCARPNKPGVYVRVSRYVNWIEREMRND
Chain of Coagulation factor X (P00742 41-179 limits assumed): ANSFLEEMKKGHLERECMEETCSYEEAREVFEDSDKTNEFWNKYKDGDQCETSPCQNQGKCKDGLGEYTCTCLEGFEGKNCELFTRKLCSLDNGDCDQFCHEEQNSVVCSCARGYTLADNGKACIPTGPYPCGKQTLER
Chain of Coagulation factor X (P00742 235-488 limits assumed): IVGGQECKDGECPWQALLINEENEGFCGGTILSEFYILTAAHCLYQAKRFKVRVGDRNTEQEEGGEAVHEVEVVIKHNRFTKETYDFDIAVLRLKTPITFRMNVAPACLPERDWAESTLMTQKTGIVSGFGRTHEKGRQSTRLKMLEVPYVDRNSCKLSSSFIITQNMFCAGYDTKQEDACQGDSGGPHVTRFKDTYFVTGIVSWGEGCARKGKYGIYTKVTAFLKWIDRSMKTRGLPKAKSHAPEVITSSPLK

Take `N=C(N)N1CCC[C@H](NC(=O)CN2CCC[C@H](NS(=O)(=O)Cc3ccccc3)C2=O)C1O` (stereo not given in full): the IC50 entry against Plasminogen [1] is recorded as “Not Active”. Moreover, the pIC50 is less than 5.60 against Coagulation factor X and 8.21 in assay [2].
As for `N=C(N)N1CCC[C@H](NC(=O)CN2CCCC[C@H](NS(=O)(=O)Cc3ccccc3C(=O)OCC3CCCCC3)C2=O)C1O` (stereo not given in full), the pIC50 is 6.20 on Coagulation factor X, 9.25 in assay [2], 6.87 on Serine protease 1 and 5.75 against Plasminogen [3].
`N=C(N)N1CCC[C@H](NC(=O)CN2CCCC[C@H](N3C(=O)c4ccccc4CS3(=O)=O)C2=O)C1O` (stereo not given in full): the pIC50 is less than 5.60 against Coagulation factor X, 6.61 in assay [2], 5.60 on Serine protease 1 and less than 5.60 on Plasminogen [3].
With `CCCOC(=O)c1ccccc1CS(=O)(=O)N[C@H]1CCCCN(CC(=O)N[C@H]2CCCN(C(=N)N)C2O)C1=O` (stereo not given in full), the pIC50 is 6.35 against Coagulation factor X, 9.02 in assay [2], 7.10 against Serine protease 1 and less than 5.60 against Plasminogen [3].
The like results for `CCCCCCCCCCOC(=O)c1ccccc1CS(=O)(=O)N[C@H]1CCCCN(CC(=O)N[C@H]2CCCN(C(=N)N)C2O)C1=O` (stereo not given in full) were, in that order, less than 5.60, 8.15, 6.84 and less than 5.60.
The like results for `N=C(N)N1CCC[C@H](NC(=O)CN2CCCC[C@H](NS(=O)(=O)Cc3ccccc3C(=O)O)C2=O)C1O` (stereo not given in full) were, in that order, less than 5.60, 7.41, 6.61 and less than 5.60.
Regarding `COC(=O)c1ccccc1CS(=O)(=O)N[C@H]1CCCCN(CC(=O)N[C@H]2CCCN(C(=N)N)C2O)C1=O` (stereo not given in full), the negative-log IC50 (pIC50) against Coagulation factor X was 6.48; in assay [2] it was 9.12; at Serine protease 1 it was 6.93; on Plasminogen [3], less than 5.60.
Taken in the same sequence, the figures for `N=C(N)N1CCC[C@H](NC(=O)CN2CCCC[C@H](NS(=O)(=O)Cc3ccccc3)C2=O)C1O` (stereo not given in full) were 7.40, 9.15, 7.00 and less than 5.60.
Taken in the same sequence, the figures for `CC(C)OC(=O)c1ccccc1CS(=O)(=O)N[C@H]1CCCCN(CC(=O)N[C@H]2CCCN(C(=N)N)C2O)C1=O` (stereo not given in full) were 6.43, 9.03, 7.38 and less than 5.60.

For the origin of these results see ChEMBL document CHEMBL1130728, “Alkoxide-catalyzed ring-opening of a novel homosaccharin derivative: synthesis of potent, selective P3-lactam thrombin inhibitors containing P4-o-alkoxycarbonylbenzylsulfonamide residues” (Bioorg Med Chem Lett, 1998).
